We go through 29 molecules from patent US20260042747A1, “KIT INHIBITORS, COMPOUNDS, PHARMACEUTICAL COMPOSITIONS, AND METHODS OF USE THEREOF” (Alivexis, Inc., priority 2022, published 2026).

Each structure is given as a SMILES string. Counter-ions that a name gives are not always drawn. Like-named read-outs stand apart in the source and are kept apart here.

Assay [1] has as its target recombinant human KIT tyrosine kinase protein (Homo sapiens (Human), UniProt P10721). Kind of assay: KIT tyrosine kinase assay (ADP-Glo). It is filed as biochemical. The protocol: An in vitro assay utilizing the recombinant human KIT tyrosine kinase protein was developed to measure compound inhibition of KIT. KIT tyrosine kinase activity was measured by the ADP-Glo Kinase Assay system with poly […]) peptide substrate. Kinase Assay was performed in white 384-well plates and the luminescence was measured by Victor X5 Multilabel Counter (Perkin Elmer). Recombinant intracellular domain of human KIT protein was purchased from Carna Biosciences (Kobe, Japan). Poly […]) peptide was purchased from Sigma-Aldrich (St. Louis, Missouri, USA). ADP-Glo Kinase Assay reagent was purchased from Promega (Madison, Wisconsin, USA). Each test compound was dissolved in 100% DMSO to prepare 10 mM stock solutions. […] After the preincubation, 3 μL of substrate/ATP mixture was added and incubated for 1 hour at room temperature. The tyrosine phosphorylation by KIT kinase was quantified by ADP-Glo kinase assay kit following the manufacturer's protocol. Briefly, the phosphorylation reaction was terminated by adding 10 μL ADP-Glo reagent and incubated for 60 minutes at room temperature. 20 μL of Kinase Detection Reagent was added to each well and luminescence was measured by plate reader. […] Half maximal inhibitory concentration (IC50) was calculated by a Four […] Logistic Regression model using GraphPad Prism (GraphPad Software). The value without recombinant KIT protein and without test compound was used as a negative control (assay background).

A further assay relates to M-07e cells. Kind of assay: SCF-dependent M-07e cell proliferation assay. The class given is cell-based, human. Particulars: read-out: M-07e IC50. The procedure:
SCF-dependent cell proliferation assay was developed to measure the inhibitory potency of the compounds in M-07e cells, which express wild-type human KIT protein. The assay was performed in 96-well plates and the IC50 of each KIT inhibitor was determined by CellTiter Glo Assay reagent and Victor X5 Multilabel Counter (Perkin Elmer).
M-07e cells were purchased from AcceGen Biotechnology. Cells were maintained with M-07e Growth medium: RPMI-1640 containing 20% FBS, 100 U/mL penicillin and 100 microgram/mL streptomycin, 10 ng/mL rhGM-CSF, 10 ng/mL rhSCF. M-07e cells were seeded at a density of 5000 cells/90 μL/well in 96-well plates. Test compounds were dissolved in 100% DMSO to make 20 mM stock solution and serially diluted 1:3 with 100% DMSO to make an 11-point dilution series with concen-trations from […] to 0.024 μM. The serially diluted compounds were then each diluted 1:50 with culture medium to obtain assay compound solutions containing 2% DMSO. Ten μL of assay compound solutions were added to the 90 μL of culture cell suspension in the 96-well plate, with a final DMSO concentration of 0.2%. The plates were then incubated in a 5% CO2 incubator at 37° C. for 3 days. To obtain Day Zero Controls for background calculation, cells were seeded at 5000 cells/100 μL in a new 96-well plate and processed on the same day. Both Day Zero controls and 3 day culture plates were then treated as follows. 100 μL of CellTiter Glo Assay reagent was added to each well and the plate was incubated at room temperature for 15 min on a shaker at 200-300 RPM. Then 100 μL of cell lysate samples were transferred to white wall 96-well plates and luminescence was measured by a plate reader. The luminescence of Day Zero Control was subtracted from the luminescence intensity of 3 day culture readings. The assay control for this experiment was cells treated with 0.2% DMSO in culture medium and wells with 100 μL of culture medium (0.2% DMSO without cells) were used as the blank for data analysis.
The IC50 value of each compound was determined by using % inhibition by nor-malizing inhibition in DMSO treated control wells to 0% using the following formula method: […]
Plot percent inhibition in proliferation of triplicates against the respective concen-trations of compound and fit the dose response curve using the sigmoidal dose response equation to generate the IC50 in GraphPad Prism 8 software.

[2] abbreviates: Homo sapiens, M-07e, 72 h, SCF-dependent M-07e cell proliferation, 3 days, CellTiter Glo.
Setting [3] is: SCF-dependent M-07e cell proliferation, 3 days, CellTiter Glo.

Chain of recombinant human KIT tyrosine kinase protein (P10721 546-976): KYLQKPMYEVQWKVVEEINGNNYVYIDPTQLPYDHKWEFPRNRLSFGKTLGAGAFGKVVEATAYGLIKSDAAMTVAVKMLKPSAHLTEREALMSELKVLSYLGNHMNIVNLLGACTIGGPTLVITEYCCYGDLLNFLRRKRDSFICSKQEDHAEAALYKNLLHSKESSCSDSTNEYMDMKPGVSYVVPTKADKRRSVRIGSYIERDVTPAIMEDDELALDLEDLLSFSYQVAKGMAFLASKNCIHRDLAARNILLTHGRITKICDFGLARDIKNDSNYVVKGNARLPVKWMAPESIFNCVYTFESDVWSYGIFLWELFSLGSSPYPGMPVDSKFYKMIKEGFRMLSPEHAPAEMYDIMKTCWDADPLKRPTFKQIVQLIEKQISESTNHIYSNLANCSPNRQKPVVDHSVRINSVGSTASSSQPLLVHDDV

As for `CN(c1ccc(CNC(=O)c2ccc3c(c2)[nH]c(=O)n3C)cn1)C1CC(C)(C)C1` [Example 77], the IC50 in assay [1] (Table 98) stood at 29 nM; with M-07e cells (Homo sapiens, M-07e, 72 h), 110 nM.
With `[2H]C([2H])([2H])n1c(=O)[nH]c2cc(C(=O)NCc3ccc(N(C)[C@H]4C[C@@H](C(F)(F)F)C4)nc3)ccc21` (relative stereo) [Example 116, 1-(Trideuteromethyl)-N-((6-(methyl(cis-3-(trifluoromethyl)cyclobutyl)amino)pyridin-3-yl)methyl)-2-oxo-2,3-dihydro-1H-benzimidazole-5-carboxamide], the IC50 in assay [1] (Table 99) was found to be 29 nM; with M-07e cells (setting [2]), 28 nM.
As to `CN(c1ccc(CNC(=O)c2ccc3c(c2)[nH]c(=O)n3C)cn1)C1CC(OC(F)F)C1` (single isomer, unassigned) [106 Isomer II, N-((6-((3-(Difluoromethoxy)cyclobutyl)(methyl)amino)pyridin-3-yl)methyl)-1-methyl-2-oxo-2,3-dihydro-1H-benzimidazole-5-carboxamide], the IC50 stood at 22 nM in assay [1] (Table 99) and 89 nM with M-07e cells (setting [3]).
Regarding `CC(c1ccccc1)N(C)c1ccc(CNC(=O)c2ccc3c(c2)[nH]c(=O)n3C)cn1` (single isomer, unassigned) [82 Peak 2], the results for the IC50 (in assay [1] (Table 98); with M-07e cells (setting [3])) were 29 nM and 620 nM, respectively.
Regarding `CN(c1ccc(CNC(=O)c2ccc3c(c2)[nH]c(=O)n3C)cn1)C12CC(C1)C2` [Example 75], the IC50 was determined as 61 nM in assay [1] (Table 98) and 500 nM with M-07e cells (Homo sapiens, M-07e, 72 h).
For `CC(N(C)c1ccc(CNC(=O)c2ccc3c(c2)[nH]c(=O)n3C)cn1)C(F)(F)F` (stereo not shown) [Example 86] the same measures were 15 nM and 120 nM.
The matching figures for `CN(CC1CCCOC1)c1ccc(CNC(=O)c2ccc3c(c2)[nH]c(=O)n3C)cn1` (stereo not shown) [Example 69]: 96 nM and 520 nM.
Take `C[C@H]1CCCN1c1cnc(CNC(=O)c2ccc3c(c2)[nH]c(=O)n3C)cn1` [Example 98]: the IC50 worked out at 71 nM in assay [1] (Table 98) and 990 nM in the assay on M-07e cells (Homo sapiens, M-07e, 72 h).
Regarding `CN(c1ccc(CNC(=O)c2ccc3c(c2)[nH]c(=O)n3C)cn1)C1CC2(CC2)C1` [Example 109, 1-Methyl-N-((6-(methyl(spiro[2.3]hexan-5-yl)amino)pyridin-3-yl)methyl)-2-oxo-2,3-d ihydro-1H-benzimidazole-5-carboxamide formate], the results for the half-inhibitory concentration (IC50) (in assay [1] (Table 99); in the assay on M-07e cells (setting [2])) were 25 nM and 12 nM, respectively.
Take `Cn1c(=O)[nH]c2cc(C(=O)NCc3ccc(OC4CCOC(C)(C)C4)nc3)ccc21` (stereo not shown) [Example 48]: the half-inhibitory concentration (IC50) stood at 550 nM in assay [1] (Table 98) and 8900 nM in the assay on M-07e cells (Homo sapiens, M-07e, 72 h).
Consider `CN(c1ccc(CNC(=O)c2ccc3c(c2)[nH]c(=O)n3C)cn1)C1CC2(C1)CC2(F)F` (stereo not shown) [Example 125], for which the IC50 turned out to be 31 nM in assay [1] (Table 99) and 151 nM in the assay with M-07e cells (Homo sapiens, M-07e, 72 h).
Regarding `CN(c1ccc(CNC(=O)c2ccc3c(c2)[nH]c(=O)n3C)cn1)C1CC(OC(F)(F)F)C1` (single isomer, unassigned) [107 Isomer I, 1-Methyl-N-((6-(methyl(3-(trifluoromethoxy)cyclobutyl)amino)pyridin-3-yl)methyl)-2-oxo-2,3-dihydro-1H-benzimidazole-5-carboxamide], the IC50 was 18 nM in assay [1] (Table 99) and 47 nM in the assay on M-07e cells (setting [3]).
`CC(C)N(C)c1ccc(CNC(=O)c2ccc3[nH]c(=O)[nH]c3c2)cn1` [Example 129]: the IC50 in assay [1] (Table 99) was found to be 20 nM; in the assay with M-07e cells (setting [2]), 1020 nM.
For `CN(c1ccc(CNC(=O)c2cc3[nH]c(=O)[nH]c3cc2F)cn1)[C@H]1C[C@@H](C(F)(F)F)C1` [Example 137], the concentration for half-maximal inhibition (IC50) in assay [1] (Table 99) was found to be 23 nM; in the assay on M-07e cells (setting [2]), 36 nM.
As to `Cn1c(=O)[nH]c2cc(C(=O)NCc3cnc(N(C)[C@H]4C[C@@H](C(F)(F)F)C4)cn3)ccc21` [Example 95], the concentration for half-maximal inhibition (IC50) came to 24 nM in assay [1] (Table 98) and 190 nM in the assay on M-07e cells (Homo sapiens, M-07e, 72 h).
For `CN(c1ccc(CNC(=O)c2ccc3c(c2)[nH]c(=O)n3C)cn1)C1[C@H]2CC(F)(F)C[C@@H]12` (stereo partly shown) [Example 126], the IC50 is 33 nM in assay [1] (Table 99) and 806 nM in the assay on M-07e cells (Homo sapiens, M-07e, 72 h).
The matching figures for `COc1cc(C(=O)NCc2ccc(N(C)[C@H]3C[C@@H](C(F)(F)F)C3)nc2)cc2[nH]c(=O)[nH]c12` [Example 145]: 15 nM and 515 nM.
As to `CN(c1ccc(CNC(=O)c2ccc3c(c2)[nH]c(=O)n3C)cn1)c1ccc(F)cc1F` [Example 62], the half-inhibitory concentration (IC50) in assay [1] (Table 98) is 170 nM; in the assay on M-07e cells (Homo sapiens, M-07e, 72 h), 290 nM.
The matching figures for `Cn1c(=O)[nH]c2cc(C(=O)NCc3ccc(Oc4ccc(Cl)cc4F)nc3)ccc21` [Example 39]: 35 nM and 140 nM.
For the molecule `CC(NC(=O)c1ccc2c(c1)[nH]c(=O)n2C)c1ccc(N(C)C(C)C)nc1` (single isomer, unassigned) [130 Peak 1], the values for the IC50 (in assay [1] (Table 99); in the assay on M-07e cells (setting [2])) were 79 nM and 621 nM, respectively.
The matching figures for `CN(c1ccc(CNC(=O)c2cc3[nH]c(=O)[nH]c3c(F)c2F)cn1)C1CCC(F)(F)C1` (stereo not shown) [Example 146]: 30 nM and 621 nM.
Regarding `CN(c1ccc(CNC(=O)c2ccc3c(c2)[nH]c(=O)n3C)cn1)C1CC2(COC2)C1` [Example 121], the IC50 stood at 59 nM in assay [1] (Table 99) and 1350 nM with M-07e cells (Homo sapiens, M-07e, 72 h).
For the molecule `CC(C)N(C)c1ccc(CNC(=O)c2ccc3c(c2)[nH]c(=O)n3C)cn1` [Compound 11b, N-((6-(Isopropyl(methyl)amino)pyridin-3-yl)methyl)-1-methyl-2-oxo-2,3-dihydro-1H-be nzimidazole-5-carboxamide hydrochloride], the IC50 in assay [1] (Table 98) turned out to be 96 nM; in the assay on M-07e cells (setting [2]) it was 220 nM.
For `CN(CC1CCC(F)(F)CC1)c1ccc(CNC(=O)c2ccc3c(c2)[nH]c(=O)n3C)cn1` [Example 70], the concentration for half-maximal inhibition (IC50) in assay [1] (Table 98) was 61 nM; with M-07e cells (Homo sapiens, M-07e, 72 h), 140 nM.
For the molecule `CN(c1ccc(CNC(=O)c2ccc3c(c2)[nH]c(=O)n3C)cn1)C1CC(OC(F)(F)F)C1` (single isomer, unassigned) [107 Isomer II, 1-Methyl-N-((6-(methyl(3-(trifluoromethoxy)cyclobutyl)amino)pyridin-3-yl)methyl)-2-oxo-2,3-dihydro-1H-benzimidazole-5-carboxamide], the IC50 in assay [1] (Table 99) worked out at 28 nM; with M-07e cells (setting [3]), 286 nM.
With `CN(c1ccc(CNC(=O)c2cc(Cl)c3[nH]c(=O)[nH]c3c2)cn1)[C@H]1C[C@@H](C(F)(F)F)C1` [compound 141], the half-inhibitory concentration (IC50) in assay [1] (Table 99) was found to be 27 nM; in the assay on M-07e cells (setting [3]) it was 153 nM.
As for `C[C@H]1CCCN1c1ccc(CNC(=O)c2ccc3c(c2)[nH]c(=O)n3C)cn1` [Compound 14, (S)-1-Methyl-N-((6-(2-methylpyrrolidin-1-yl)pyridin-3-yl)methyl)-2-oxo-2,3-dihydro-1H-benzimidazole-5-carboxamide], the IC50 in assay [1] (Table 98) turned out to be 63 nM; with M-07e cells (setting [2]) it was 560 nM.
On to `CN(CC1CCCCO1)c1ccc(CNC(=O)c2ccc3c(c2)[nH]c(=O)n3C)cn1` (stereo not shown) [Example 71], for which the concentration for half-maximal inhibition (IC50) in assay [1] (Table 98) amounted to 60 nM; in the assay on M-07e cells (Homo sapiens, M-07e, 72 h), 310 nM.
Take `CN(c1ccc(CNC(=O)c2ccc3c(c2)[nH]c(=O)n3C)cn1)C1CC2C(C1)C2(F)F` (stereo not shown) [Example 108, N-((6-((6,6-Difluorobicyclo[3.1.0]hexan-3-yl)(methyl)amino)pyridin-3-yl)methyl)-1-met hyl-2-oxo-2,3-dihydro-1H-benzimidazole-5-carboxamide]: the values for the IC50 (in assay [1] (Table 99); in the assay on M-07e cells (setting [2])) were 22 nM and 65 nM, respectively.
